Values after ≈ are worked out from the molar mass of the structure shown. Where two headings read alike, the source gives them in different places.
Columns and labels:
[1] = test system: P. aeruginosa (ΔmexAB-oprM); test: Broth microdilution MIC in iron-depleted CAMHB (IDM); assay type: cell-based; conditions: Pseudomonas aeruginosa; iron-depleted CAMHB (IDM); […]; read-out: Minimum inhibitory concentration, P. aeruginosa ΔmexAB-oprM
A. baumannii ATCC 17978 = test: microbe, parasite or virus in culture; assay type: cell-based; conditions: Acinetobacter baumannii
P. aeruginosa ATCC 35151 = test: microbe, parasite or virus in culture; assay type: cell-based; conditions: Pseudomonas aeruginosa, ATCC35151, read-out: Minimum inhibitory concentration, P. aeruginosa ATCC 35151
P. aeruginosa CDC-0054 = test: microbe, parasite or virus in culture; assay type: cell-based; conditions: Pseudomonas aeruginosa, CDC0054, read-out: Minimum inhibitory concentration, P. aeruginosa CDC-0054
[2] = target: T1, PBP3 from Pseudomonas aeruginosa (PAO1) (Pseudomonas aeruginosa, UniProt G3XD46); test: Bocillin-FL fluorescence polarization competition binding, P. aeruginosa PBP3; conditions: Binding affinity to P. aeruginosa PBP3; fluorescence polarization competition binding assay using Bocillin-FL; read-out: P. aeruginosa PBP3 Potency
T1 construct: made in house
T1 sequence (G3XD46 whole entry): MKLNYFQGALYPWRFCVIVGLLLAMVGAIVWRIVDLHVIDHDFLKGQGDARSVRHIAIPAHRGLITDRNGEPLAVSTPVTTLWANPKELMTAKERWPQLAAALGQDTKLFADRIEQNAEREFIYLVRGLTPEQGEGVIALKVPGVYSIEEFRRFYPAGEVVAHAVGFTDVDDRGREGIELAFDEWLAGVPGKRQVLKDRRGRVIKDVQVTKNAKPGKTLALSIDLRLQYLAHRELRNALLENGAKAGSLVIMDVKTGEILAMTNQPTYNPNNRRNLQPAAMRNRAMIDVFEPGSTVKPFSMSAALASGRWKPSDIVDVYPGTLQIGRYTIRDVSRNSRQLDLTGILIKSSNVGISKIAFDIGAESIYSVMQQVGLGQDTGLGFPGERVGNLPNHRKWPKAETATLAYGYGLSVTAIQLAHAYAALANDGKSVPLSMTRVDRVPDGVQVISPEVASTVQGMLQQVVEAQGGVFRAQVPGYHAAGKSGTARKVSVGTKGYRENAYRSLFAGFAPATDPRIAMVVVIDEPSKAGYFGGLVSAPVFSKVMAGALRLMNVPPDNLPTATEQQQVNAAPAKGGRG
Procedure, shortened: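 Purified PBPs pre-incubated with inhibitor (E. coli PBP3 1.5 μM, 30 min; P. aeruginosa PBP3 0.75 μM, A. baumannii PBP1a 1 μM and PBP3 0.2 μM, 15 min), then Bocillin-FL 0.1 μM (0.05 μM for PBP1a) added; FP read up to 60 min. EC50 = concentration halving bound Bocillin-FL.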

P. aeruginosa CDC-0090 = test: microbe, parasite or virus in culture; assay type: cell-based; conditions: Pseudomonas aeruginosa, CDC0090, read-out: Minimum inhibitory concentration, P. aeruginosa CDC-0090
A. baumannii CDC-0036 = test: microbe, parasite or virus in culture; assay type: cell-based; conditions: Acinetobacter baumannii
A. baumannii CDC-0033 = test: microbe, parasite or virus in culture; assay type: cell-based; conditions: Acinetobacter baumannii
A. baumannii 1258916 = test: microbe, parasite or virus in culture; assay type: cell-based, Acinetobacter baumannii
[3] = test system: B. humptydooensis ATCC BAA-2767; test: microbe, parasite or virus in culture; assay type: cell-based; conditions: Burkholderia humptydooensis, ATCCBAA2767, read-out: Minimum inhibitory concentration (MIC), B. humptydooensis ATCC BAA-2767
[4] = ATCC17978, read-out: Minimum inhibitory concentration (MIC), A. baumannii ATCC 17978
[5] = CDC0036, read-out: Minimum inhibitory concentration (MIC), A. baumannii CDC-0036
[6] = CDC0033, read-out: Minimum inhibitory concentration (MIC), A. baumannii CDC-0033
[7] = Acinetobacter baumannii, 1258916, read-out: Minimum inhibitory concentration (MIC), A. baumannii 1258916
[8] = ATCC17978, read-out: MIC, A. baumannii ATCC 17978
[9] = CDC0036, read-out: MIC, A. baumannii CDC-0036
[10] = CDC0033, read-out: MIC, A. baumannii CDC-0033
[11] = Acinetobacter baumannii, 1258916, read-out: MIC, A. baumannii 1258916

Compound	MIC [1] [mg/L]	MIC (A. baumannii ATCC 17978; [4]) [mg/L]	MIC (P. aeruginosa ATCC 35151) [mg/L]	MIC (P. aeruginosa CDC-0054) [mg/L]	IC50 [2] [µM]	MIC (P. aeruginosa CDC-0090) [mg/L]	MIC (A. baumannii CDC-0036; [5]) [mg/L]	MIC (A. baumannii CDC-0033; [6]) [mg/L]	MIC (A. baumannii 1258916; [7]) [mg/L]	MIC [3] [mg/L]	MIC (A. baumannii ATCC 17978; [8]) [mg/L]	MIC (A. baumannii CDC-0036; [9]) [mg/L]	MIC (A. baumannii CDC-0033; [10]) [mg/L]	MIC (A. baumannii 1258916; [11]) [mg/L]
O=C(O)c1c(F)ccc2c1OB(O)[C@@H](NC(=O)[C@H](NC(=O)N1CCN(C3CCN(C(=O)c4cc(F)c(O)c(O)c4Cl)CC3)C1=O)c1ccc(P(=O)(O)O)cc1)C2 (single isomer, unassigned) [Example 495]	< 1	< 1	< 1	< 1	< 10	< 1	< 1	< 1	< 1	< 1	–	–	–	–
O=C(O)c1c(F)ccc2c1OB(O)[C@@H](NC(=O)[C@H](NC(=O)N1CCN(C3CCN(C(=O)Nc4ccc(O)c(O)c4Cl)CC3)C1=O)c1ccc(P(=O)(O)O)cc1)C2 (single isomer, unassigned) [Example 497]	< 1	< 1	< 1	< 1	< 10	8 to 16 (≈ 9.77 to 19.5 µM)	< 1	< 1	< 1	< 1	–	–	–	–
O=C(O)c1c(F)ccc2c1OB(O)[C@@H](NC(=O)[C@H](NC(=O)N1CCN(C3CCN(C(=O)Nc4cc(F)c(O)c(O)c4Cl)CC3)C1=O)c1ccc(P(=O)(O)O)cc1)C2 (single isomer, unassigned) [Example 500]	< 1	< 1	< 1	< 1	< 10	2 to 4 (≈ 2.39 to 4.78 µM)	< 1	< 1	< 1	< 1	–	–	–	–
O=C(O)c1cccc2c1OB(O)[C@@H](NC(=O)C(NC(=O)N1CCN(Cc3cc(F)c(O)c(O)c3Cl)C(=O)C1=O)c1ccc(P(=O)(O)O)cc1)C2 (stereo partly drawn) [Example 164, (3R)-3-(2-(4-(2-chloro-5-fluoro-3,4-dihydroxybenzyl)-2,3-dioxopiperazine-1-carboxamido)-2-(4-phosphonophenyl)acetamido)-2-hydroxy-3,4-dihydro-2H-benzo[e][1,2]oxaborinine-8-carboxylic acid]	< 1	–	< 1	< 1	< 10	< 1	–	–	–	< 1	< 1	< 1	< 1	< 1
O=C(O)c1c(F)ccc2c1OB(O)[C@@H](NC(=O)[C@H](NC(=O)N1CCN(Cc3ccc(O)c(O)c3Cl)C(=O)C1=O)c1ccc(P(=O)(O)O)c(F)c1F)C2 [Example 166, (R)-3-((R)-2-(4-(2-chloro-3,4-dihydroxybenzyl)-2,3-dioxopiperazine-1-carboxamido)-2-(2,3-difluoro-4-phosphonophenyl)acetamido)-7-fluoro-2-hydroxy-3,4-dihydro-2H-benzo[e][1,2]oxaborinine-8-carboxylic acid]	< 1	–	< 1	< 1	< 10	2 to 4 (≈ 2.59 to 5.19 µM)	–	–	–	< 1	< 1	< 1	< 1	< 1
O=C(NCCS(=O)(=O)N1CCN(C(=O)N[C@H](C(=O)N[C@H]2Cc3ccc(F)c(C(=O)O)c3OB2O)c2ccc(P(=O)(O)O)cc2)C1=O)c1ccc(O)c(O)c1Cl [Example 167, (R)-3-((S)-2-(3-((2-(2-chloro-3,4-dihydroxybenzamido)ethyl)sulfonyl)-2-oxoimidazolidine-1-carboxamido)-2-(4-phosphonophenyl)acetamido)-7-fluoro-2-hydroxy-3,4-dihydro-2H-benzo[e][1,2]oxaborinine-8-carboxylic acid]	> 128	–	32 to 64 (≈ 38.7 to 77.3 µM)	> 128	50 to 250	> 128	–	–	–	> 128	32 to 64 (≈ 38.7 to 77.3 µM)	> 128	> 128	> 128
O=C(O)c1c(F)ccc2c1OB(O)[C@@H](NC(=O)[C@H](NC(=O)N1CCN(C3CCN(C(=O)c4ccc(F)c(O)c4Cl)CC3)C1=O)c1cc(F)c(O)c(O)c1Cl)C2 [Example 438, (R)-3-((R)-2-(3-(1-(2-chloro-4-fluoro-3-hydroxybenzoyl)piperidin-4-yl)-2-oxoimidazolidine-1-carboxamido)-2-(2-chloro-5-fluoro-3,4-dihydroxyphenyl)acetamido)-7-fluoro-2-hydroxy-3,4-dihydro-2H-benzo[e][1,2]oxaborinine-8-carboxylic acid]	< 1	–	< 1	< 1	< 10	2 to 4 (≈ 2.47 to 4.94 µM)	–	–	–	< 1	< 1	< 1	< 1	< 1
O=C(O)c1c(F)ccc2c1OB(O)[C@@H](NC(=O)[C@H](NC(=O)N1CCN(C3CCN(C(=O)Nc4cccc(O)c4)CC3)C1=O)c1cc(F)c(O)c(O)c1Cl)C2 [Example 445, (R)-3-((R)-2-(2-chloro-5-fluoro-3,4-dihydroxyphenyl)-2-(3-(1-((3-hydroxyphenyl)carbamoyl)piperidin-4-yl)-2-oxoimidazolidine-1-carboxamido)acetamido)-7-fluoro-2-hydroxy-3,4-dihydro-2H-benzo[e][1,2]oxaborinine-8-carboxylic acid]	< 1	–	< 1	< 1	< 10	< 1	–	–	–	< 1	< 1	< 1	2 to 4 (≈ 2.59 to 5.18 µM)	< 1
O=C(O)c1c(F)ccc2c1OB(O)[C@@H](NC(=O)[C@H](NC(=O)N1CCN(C3CCN(C(=O)Nc4cccc(O)c4Cl)CC3)C1=O)c1cc(F)c(O)c(O)c1Cl)C2 [Example 447, (R)-3-((R)-2-(3-(1-((2-chloro-3-hydroxyphenyl)carbamoyl)piperidin-4-yl)-2-oxoimidazolidine-1-carboxamido)-2-(2-chloro-5-fluoro-3,4-dihydroxyphenyl)acetamido)-7-fluoro-2-hydroxy-3,4-dihydro-2H-benzo[e][1,2]oxaborinine-8-carboxylic acid]	< 1	–	< 1	< 1	< 10	< 1	–	–	–	< 1	< 1	< 1	< 1	< 1
O=C(O)c1c(F)ccc2c1OB(O)[C@@H](NC(=O)[C@H](NC(=O)N1CCN(C3CCN(C(=O)Nc4cc(O)cc(O)c4)CC3)C1=O)c1cc(F)c(O)c(O)c1Cl)C2 [Example 456, (R)-3-((R)-2-(2-chloro-5-fluoro-3,4-dihydroxyphenyl)-2-(3-(1-((3,5-dihydroxyphenyl)carbamoyl)piperidin-4-yl)-2-oxoimidazolidine-1-carboxamido)acetamido)-7-fluoro-2-hydroxy-3,4-dihydro-2H-benzo[e][1,2]oxaborinine-8-carboxylic acid]	< 1	–	< 1	< 1	< 10	< 1	–	–	–	< 1	< 1	< 1	< 1	< 1
O=C(O)c1c(F)ccc2c1OB(O)[C@@H](NC(=O)[C@H](NC(=O)N1CCN(C3CCN(C(=O)c4cccnc4)CC3)C1=O)c1cc(F)c(O)c(O)c1Cl)C2 [Example 460, (R)-3-((R)-2-(2-chloro-5-fluoro-3,4-dihydroxyphenyl)-2-(3-(1-nicotinoylpiperidin-4-yl)-2-oxoimidazolidine-1-carboxamido)acetamido)-7-fluoro-2-hydroxy-3,4-dihydro-2H-benzo[e][1,2]oxaborinine-8-carboxylic acid]	< 1	–	< 1	< 1	< 10	< 1	–	–	–	< 1	< 1	< 1	< 1	< 1
O=C(O)c1c(F)ccc2c1OB(O)[C@@H](NC(=O)[C@H](NC(=O)N1CCN(C3CCN(C(=O)c4ccncc4)CC3)C1=O)c1cc(F)c(O)c(O)c1Cl)C2 [Example 461, (R)-3-((R)-2-(2-chloro-5-fluoro-3,4-dihydroxyphenyl)-2-(3-(1-isonicotinoylpiperidin-4-yl)-2-oxoimidazolidine-1-carboxamido)acetamido)-7-fluoro-2-hydroxy-3,4-dihydro-2H-benzo[e][1,2]oxaborinine-8-carboxylic acid]	< 1	–	< 1	< 1	< 10	< 1	–	–	–	< 1	< 1	< 1	< 1	< 1

Source: patent US20240270762A1, “PENICILLIN-BINDING PROTEIN INHIBITORS” (priority 2021, published 2024)
